Experimental findings from patent publication US8940731B2, “Substituted pyridyl amide compounds as modulators of the histamine H3 receptor” (Janssen Pharmaceutica NV, priority 2006, dated 2015) are described below.

The target in assay [1] is T1, Rat H3 (Rattus norvegicus, UniProt Q9QYN8). Description: H3 Receptor Binding (Rat). The following applies: rat brain membranes without cerebellum, 0.8 nM N-[3H]-α-methylhistamine, 60 min at 25° C.; average of the results obtained. Here is the method: H3 Receptor Binding (Rat)
A rat brain without cerebellum (Zivic Laboratories Inc., Pittsburgh, Pa.) was homogenized in 50 mM Tris-HCl/5 mM EDTA and centrifuged at 1,000 rpm for 5 min. The supernatant was removed and recentrifuged at 15,000 rpm for 30 min. Pellets were rehomogenized in 50 mM Tris/5 mM EDTA (pH 7.4). Membranes were incubated with 0.8 nM N-[^3H]-α-methylhistamine plus/minus test compounds for 60 min at 25° C. and harvested by rapid filtration over GF/C glass fiber filters (pretreated with 0.3% polyethylenimine) followed by four washes with buffer. Nonspecific binding was defined in the presence of 100 μM histamine.
Target sequence in this assay (Q9QYN8 1-397 isoform Q9QYN8-3): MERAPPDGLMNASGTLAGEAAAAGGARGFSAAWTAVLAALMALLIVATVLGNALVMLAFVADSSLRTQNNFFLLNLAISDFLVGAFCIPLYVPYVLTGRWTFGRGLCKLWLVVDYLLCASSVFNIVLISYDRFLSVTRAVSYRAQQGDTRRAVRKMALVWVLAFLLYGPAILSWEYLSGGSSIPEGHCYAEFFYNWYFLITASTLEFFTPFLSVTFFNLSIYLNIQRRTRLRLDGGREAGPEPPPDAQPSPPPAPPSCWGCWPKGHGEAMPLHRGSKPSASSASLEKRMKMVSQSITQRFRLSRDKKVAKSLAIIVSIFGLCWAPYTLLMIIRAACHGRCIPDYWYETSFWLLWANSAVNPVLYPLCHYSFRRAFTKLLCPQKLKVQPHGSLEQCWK

In assay [2] the target is T2, cloned human H3 receptors (Homo sapiens, UniProt Q9Y5N1).
T2 construct: expressed in transfected cells
Description: H3 Receptor Binding (Human). The note with it: cloned human H3 receptors stably expressed in SK-N-MC cells; average of the results obtained; read-out: Human H3 Ki. Here is the method: H3 Receptor Binding (Human)
Binding of compounds to the cloned human H3 receptors, stably expressed in SK-N-MC cells, was performed as described by Barbier, A. J. et al. (Br. J. Pharmacol. 2004, 143(5), 649-661).

The next assay deals with T3, human H3 receptor (Homo sapiens, UniProt Q9Y5N1).
T3 construct: expressed in transfected cells; host or cells: SK-N-MC sublines with a reporter construct
Description: Cyclic AMP Accumulation (human H3 receptor). The format is cell-based. The source says: (§1) Sublines of SK-N-MC cells were created that expressed a reporter construct and either the human or rat H3 receptor.

In assay [3] the target is T1, Rat H3. Description: cell-based.
Description: as §1
Target sequence in this assay (Q9QYN8 whole entry): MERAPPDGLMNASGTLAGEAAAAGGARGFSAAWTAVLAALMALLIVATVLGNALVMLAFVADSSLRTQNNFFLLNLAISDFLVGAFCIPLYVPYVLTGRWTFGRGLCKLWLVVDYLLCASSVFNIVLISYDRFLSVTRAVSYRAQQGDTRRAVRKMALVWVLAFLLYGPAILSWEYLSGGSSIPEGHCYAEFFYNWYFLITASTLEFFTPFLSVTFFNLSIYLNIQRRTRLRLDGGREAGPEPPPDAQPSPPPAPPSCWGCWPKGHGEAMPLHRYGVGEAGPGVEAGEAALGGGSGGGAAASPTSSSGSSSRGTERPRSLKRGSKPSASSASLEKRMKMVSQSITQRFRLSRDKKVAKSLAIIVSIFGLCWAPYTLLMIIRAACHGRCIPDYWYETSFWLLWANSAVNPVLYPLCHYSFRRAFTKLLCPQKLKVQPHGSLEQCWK

Setting [4] is: SK-N-MC subline expressing reporter construct and human H3 receptor, average.
Where [5] appears, read: SK-N-MC subline expressing reporter construct and rat H3 receptor, average.
The mark [6] stands for this setting: SK-N-MC subline expressing reporter construct and human H3 receptor, average, read-out: Human pA2 (converted).
Setting [7] is: SK-N-MC subline expressing reporter construct and rat H3 receptor, average, read-out: Rat pA2 (converted).

Counter-ions that a name gives are not always drawn. Like-named read-outs stand apart in the source and are kept apart here.

T2 sequence (Q9Y5N1 whole entry): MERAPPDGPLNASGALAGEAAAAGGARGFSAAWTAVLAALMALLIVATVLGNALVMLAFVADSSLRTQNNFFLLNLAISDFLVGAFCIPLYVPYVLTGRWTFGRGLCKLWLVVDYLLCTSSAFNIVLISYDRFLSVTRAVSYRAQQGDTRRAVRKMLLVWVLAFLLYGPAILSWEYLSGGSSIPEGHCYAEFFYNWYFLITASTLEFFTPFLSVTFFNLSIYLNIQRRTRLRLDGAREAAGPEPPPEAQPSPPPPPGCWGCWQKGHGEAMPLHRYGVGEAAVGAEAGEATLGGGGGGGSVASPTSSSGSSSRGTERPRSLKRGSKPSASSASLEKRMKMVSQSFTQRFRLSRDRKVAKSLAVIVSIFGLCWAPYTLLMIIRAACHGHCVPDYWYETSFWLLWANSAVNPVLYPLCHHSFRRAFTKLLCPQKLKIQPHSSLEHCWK
T3 sequence (Q9Y5N1 whole entry): as above

For the molecule `O=C(c1ccc(Oc2ccc(Cl)c(Cl)c2)nc1)N1CCCN(C2CC2)CC1` [Example 9, (4-Cyclopropyl-[1,4]diazepan-1-yl)-[6-(3,4-dichloro-phenoxy)-pyridin-3-yl]-methanone], the Ki (in general, the dissociation constant of the complex between target and ligand, obtained from inhibition or displacement) was determined as 130 nM at Rat H3 [1] and 11 nM in assay [2]. The Kb at human H3 receptor is 8.71 nM; on Rat H3 [3], 44.7 nM.

As for `N#Cc1cccc(Oc2ccc(C(=O)N3CCCN(C4CC4)CC3)cn2)c1` [Example 11, 3-[5-(4-Cyclopropyl-[1,4]diazepane-1-carbonyl)-pyridin-2-yloxy]-benzonitrile], the inhibition constant (Ki) is 447 nM on Rat H3 [1] and 7 nM in assay [2]. The “Human pA2” value at human H3 receptor (setting [4]) is listed as 8.53.

As to `Cc1cc(Oc2ccc(C(=O)N3CCCN(C4CC4)CC3)cn2)ccc1Cl` [Example 12, [6-(4-Chloro-3-methyl-phenoxy)-pyridin-3-yl]-(4-cyclopropyl-[1,4]diazepan-1-yl)-methanone], the Ki on Rat H3 [1] was determined as 51 nM; in assay [2], 5 nM. Moreover, the Kb on human H3 receptor is 5.5 nM.

On to `O=C(c1ccc(Oc2ccc(Cl)c(Cl)c2)nc1)N1CCCN(C2CCC2)CC1` [Example 14, (4-Cyclobutyl-[1,4]diazepan-1-yl)-[6-(3,4-dichloro-phenoxy)-pyridin-3-yl]-methanone], for which the Ki at Rat H3 [1] is 10 nM; in assay [2], 2 nM. Moreover, on human H3 receptor (setting [4]), the “Human pA2” value came out at 9.26. The “Rat pA2” value at Rat H3 [3] (setting [5]) is recorded as 8.16.

As to `O=C(c1ccc(Oc2cccc(Cl)c2)nc1)N1CCCN(C2CCC2)CC1` [Example 24, [6-(3-Chloro-phenoxy)-pyridin-3-yl]-(4-cyclobutyl-[1,4]diazepan-1-yl)-methanone], the inhibition constant (Ki) on Rat H3 [1] is 15 nM; in assay [2] it was 1 nM. Also, the Kb is 0.708 nM on human H3 receptor (setting [6]) and 4.37 nM at Rat H3 [3] (setting [7]).

Take `O=C(c1ccc(Oc2ccc(Cl)cc2)nc1)N1CCCN(C2CCC2)CC1` [Example 25, [6-(4-Chloro-phenoxy)-pyridin-3-yl]-(4-cyclobutyl-[1,4]diazepan-1-yl)-methanone]: the values for the inhibitory constant (Ki) (at Rat H3 [1]; in assay [2]) were 25 nM and 1 nM, respectively. Also, the “Human pA2” value at human H3 receptor (setting [4]) is recorded as 9.22. In addition, the Kb at Rat H3 [3] (setting [7]) is 3.8 nM.

Take `O=C(c1ccc(Oc2ccc(F)c(F)c2)nc1)N1CCCN(C2CCC2)CC1` [Example 26, (4-Cyclobutyl-[1,4]diazepan-1-yl)-[6-(3,4-difluoro-phenoxy)-pyridin-3-yl]-methanone]: the Ki came to 16 nM on Rat H3 [1] and 1 nM in assay [2]. The values for the Kb on human H3 receptor and on Rat H3 [3] were 0.229 nM and 2.14 nM, respectively.

For `O=C(c1ccc(Oc2ccccc2F)nc1)N1CCCN(C2CCC2)CC1` [Example 29, (4-Cyclobutyl-[1,4]diazepan-1-yl)-[6-(2-fluoro-phenoxy)-pyridin-3-yl]-methanone], the inhibitory constant (Ki) on Rat H3 [1] came to 20 nM; in assay [2] it was 1 nM. Besides, the figures for the Kb at human H3 receptor and on Rat H3 [3] were 0.813 nM and 3.55 nM, respectively.

As to `O=C(c1ccc(Oc2ccc(F)cc2F)nc1)N1CCCN(C2CCC2)CC1` [Example 30, (4-Cyclobutyl-[1,4]diazepan-1-yl)-[6-(2,4-difluoro-phenoxy)-pyridin-3-yl]-methanone], the inhibition constant (Ki) was found to be 26 nM on Rat H3 [1] and 1 nM in assay [2]. Further, the Kb is 0.537 nM on human H3 receptor and 4.17 nM at Rat H3 [3].

Take `O=C(c1ccc(Oc2ccccc2F)nc1)N1CCCN(C2CC2)CC1` [Example 31, (4-Cyclopropyl-[1,4]diazepan-1-yl)-[6-(2-fluoro-phenoxy)-pyridin-3-yl]-methanone]: the Ki on Rat H3 [1] was 39 nM; in assay [2] it was 4 nM. Moreover, the results for the Kb on human H3 receptor and at Rat H3 [3] were 2.4 nM and 7.59 nM, respectively.

Take `O=C(c1ccc(Oc2cccc(F)c2)nc1)N1CCCN(C2CCC2)CC1` [Example 39, (4-Cyclobutyl-[1,4]diazepan-1-yl)-[6-(3-fluoro-phenoxy)-pyridin-3-yl]-methanone]: the Ki at Rat H3 [1] was found to be 21 nM; in assay [2], 1 nM. Also, on human H3 receptor (setting [4]), the “Human pA2” value stood at 9.40. Further, on Rat H3 [3] (setting [5]), the “Rat pA2” value is reported as 8.38.

On to `CSc1ccc(Oc2ccc(C(=O)N3CCCN(C4CCC4)CC3)cn2)cc1C` [Example 40, (4-Cyclobutyl-[1,4]diazepan-1-yl)-[6-(3-methyl-4-methylsulfanyl-phenoxy)-pyridin-3-yl]-methanone], for which the results for the inhibitory constant (Ki) (at Rat H3 [1]; in assay [2]) were 36 nM and 1 nM, respectively. Also, the figures for the Kb at human H3 receptor and on Rat H3 [3] were 1.32 nM and 13.5 nM, respectively.

For `N#Cc1nc(C(=O)N2CCCN(C3CC3)CC2)ccc1Oc1ccc(F)cc1` [Example 59, 6-(4-Cyclopropyl-[1,4]diazepane-1-carbonyl)-3-(4-fluoro-phenoxy)-pyridine-2-carbonitrile], the Ki in assay [2] stood at 3 nM. The figures for the Kb on human H3 receptor and at Rat H3 [3] were 3.09 nM and 26.9 nM, respectively.

Consider `N#Cc1nc(C(=O)N2CCCN(C3CC3)CC2)ccc1Oc1ccccc1F` [Example 61, 6-(4-Cyclopropyl-[1,4]diazepane-1-carbonyl)-3-(2-fluoro-phenoxy)-pyridine-2-carbonitrile], for which the inhibition constant Ki in assay [2] was determined as 6 nM. Moreover, the Kb is 3.63 nM at human H3 receptor and 32.4 nM at Rat H3 [3].

Take `O=C(c1ccc(Oc2ccccc2)nc1)N1CCCN(C2CCCC2)CC1` [Example 65, (4-Cyclopentyl-[1,4]diazepan-1-yl)-(6-phenoxy-pyridin-3-yl)-methanone]: in assay [2], the inhibitory constant (Ki) came out at 2 nM. For the same molecule, the results for the Kb at human H3 receptor and on Rat H3 [3] were 1.15 nM and 0.661 nM, respectively.

Take `O=C(c1ccc(Oc2ccc(Cl)c(Cl)c2)nc1)N1CCCN(C2CCCC2)CC1` [Example 66, (4-Cyclopentyl-[1,4]diazepan-1-yl)-[6-(3,4-dichloro-phenoxy)-pyridin-3-yl]-methanone]: the Ki in assay [2] came to 1 nM. Further, the Kb at human H3 receptor was 1.12 nM; at Rat H3 [3], 11.5 nM.

As to `O=C(c1ccc(Oc2ccc(F)cc2)nc1)N1CCCN(C2CCCC2)CC1` [Example 67, (4-Cyclopentyl-[1,4]diazepan-1-yl)-[6-(4-fluoro-phenoxy)-pyridin-3-yl]-methanone], in assay [2], the Ki amounted to 2 nM. The Kb on human H3 receptor is 1.35 nM; on Rat H3 [3], 6.76 nM.

In the case of `O=C(c1ccc(Oc2ccc(Cl)cc2)cn1)N1CCCN(C2CCC2)CC1` [Example 68, [5-(4-Chloro-phenoxy)-pyridin-2-yl]-(4-cyclobutyl-[1,4]diazepan-1-yl)-methanone trifluoroacetic acid salt], in assay [2], the Ki turned out to be 2 nM. The “Human pA2” value on human H3 receptor (setting [4]) turned out to be 8.61. Also, the Kb on Rat H3 [3] (setting [7]) is 15.8 nM.

As to `O=C(c1ccc(Oc2cccc(Cl)c2)cn1)N1CCCN(C2CCC2)CC1` [Example 70, [5-(3-Chloro-phenoxy)-pyridin-2-yl]-(4-cyclobutyl-[1,4]diazepan-1-yl)-methanone trifluoroacetic acid salt], the inhibitory constant (Ki) in assay [2] came out at 2 nM. On human H3 receptor (setting [4]), the “Human pA2” value turned out to be 8.72. In addition, the Kb on Rat H3 [3] (setting [7]) was 19.1 nM.

For `O=C(c1ccc(Oc2ccccc2Cl)nc1)N1CCCN(C2CCC2)CC1` [Example 73, [6-(2-Chloro-phenoxy)-Pyridin-3-yl]-(4-cyclobutyl-[1,4]diazepan-1-yl)-methanone], in assay [2], the Ki turned out to be 4 nM. For the same molecule, the values for the Kb at human H3 receptor (setting [6]) and at Rat H3 [3] (setting [7]) were 0.309 nM and 1.2 nM, respectively.

Regarding `O=C(c1ccc(Oc2ccc(F)cc2)nc1)N1CCN(C2CCCC2)CC1` [Example 74, (4-Cyclopentyl-piperazin-1-yl)-[6-(4-fluoro-phenoxy)-pyridin-3-yl]-methanone], the Ki in assay [2] is 7 nM. Further, the Kb at human H3 receptor is 8.91 nM; at Rat H3 [3], 36.3 nM.

As to `O=C(c1ccc(Sc2ccc(F)cc2)nc1)N1CCCN(C2CCC2)CC1` [Example 83, (4-Cyclobutyl-[1,4]diazepan-1-yl)-[6-(4-fluoro-phenylsulfanyl)-pyridin-3-yl]-methanone], the “Human pA2” value on human H3 receptor (setting [4]) was 9.48. Also, at Rat H3 [3] (setting [7]), the Kb was 3.24 nM.

Consider `O=C(c1ccc(Sc2ccc(F)cc2)cn1)N1CCCN(C2CCC2)CC1` [Example 84, (4-Cyclobutyl-[1,4]diazepan-1-yl)-[5-(4-fluoro-phenylsulfanyl)-pyridin-2-yl]-methanone trifluoroacetic acid salt], for which the Ki at Rat H3 [1] is 37 nM; in assay [2], 2 nM.

On to `O=C(c1ccc(Sc2ccccc2)nc1)N1CCCN(C2CCC2)CC1` [Example 86, (4-Cyclobutyl-[1,4]diazepan-1-yl)-(6-phenylsulfanyl-pyridin-3-yl)-methanone], for which the Ki in assay [2] was 1 nM. Besides, at human H3 receptor (setting [4]), the “Human pA2” value is on record as 9.48. On Rat H3 [3] (setting [7]), the Kb is 3.16 nM.

As for `Cc1ccc(Oc2ccc(C(=O)N3CCCN(C4CCC4)CC3)cn2)cc1` [Example 104, (4-Cyclobutyl-[1,4]diazepan-1-yl)-(6-p-tolyloxy-pyridin-3-yl)-methanone], the inhibitory constant (Ki) in assay [2] stood at 2 nM. In addition, the figures for the Kb at human H3 receptor and at Rat H3 [3] were 0.724 nM and 4.27 nM, respectively.

For `CSc1ccc(Oc2ccc(C(=O)N3CCCN(C4CCC4)CC3)cn2)cc1` [Example 105, (4-Cyclobutyl-[1,4]diazepan-1-yl)-[6-(4-methylsulfanyl-phenoxy)-pyridin-3-yl]-methanone], the results for the Ki (at Rat H3 [1]; in assay [2]) were 32 nM and 11 nM, respectively.
